We go through one compound from doi:10.1101/2021.09.28.462164v1 (biorxiv, 2021).

Residue numbers refer to the chain shown, from its start.

Holding throughout (type): cell-based
Holding throughout (conditions): 30 C; extract in 50 mM Tris-HCl pH 7.5; described as competitive inhibitor

In assay [1] the target is T1, HsHK1 (Homo sapiens, UniProt P19367, G679A).
T1 sequence (P19367 1-917 G679A): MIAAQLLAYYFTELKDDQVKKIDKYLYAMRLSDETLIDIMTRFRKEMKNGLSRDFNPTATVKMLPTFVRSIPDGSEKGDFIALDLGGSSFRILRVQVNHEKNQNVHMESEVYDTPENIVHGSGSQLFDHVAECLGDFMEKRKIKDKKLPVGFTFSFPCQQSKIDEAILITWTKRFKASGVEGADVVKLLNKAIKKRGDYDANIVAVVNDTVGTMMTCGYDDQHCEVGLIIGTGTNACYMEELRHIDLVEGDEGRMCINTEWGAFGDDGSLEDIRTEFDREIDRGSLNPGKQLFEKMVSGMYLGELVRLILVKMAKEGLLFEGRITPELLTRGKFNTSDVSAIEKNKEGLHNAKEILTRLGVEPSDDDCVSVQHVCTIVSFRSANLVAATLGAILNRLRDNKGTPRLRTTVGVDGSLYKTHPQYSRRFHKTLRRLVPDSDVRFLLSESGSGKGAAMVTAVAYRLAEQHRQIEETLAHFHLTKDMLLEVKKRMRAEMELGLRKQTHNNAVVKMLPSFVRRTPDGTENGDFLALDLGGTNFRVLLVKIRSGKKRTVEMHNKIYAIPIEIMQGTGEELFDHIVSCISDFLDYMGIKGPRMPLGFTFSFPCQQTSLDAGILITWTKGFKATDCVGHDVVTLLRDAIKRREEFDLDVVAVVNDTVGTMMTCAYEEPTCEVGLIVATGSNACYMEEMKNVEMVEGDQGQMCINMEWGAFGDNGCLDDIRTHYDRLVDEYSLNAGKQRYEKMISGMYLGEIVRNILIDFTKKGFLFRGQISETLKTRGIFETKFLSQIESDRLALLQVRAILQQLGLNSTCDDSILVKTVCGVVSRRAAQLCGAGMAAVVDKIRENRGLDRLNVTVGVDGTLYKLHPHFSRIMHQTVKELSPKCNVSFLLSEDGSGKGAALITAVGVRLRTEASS

The target of assay [2] is T2, HsHK2 (Homo sapiens, UniProt P52789, L776F).
T2 sequence (P52789 1-917 L776F): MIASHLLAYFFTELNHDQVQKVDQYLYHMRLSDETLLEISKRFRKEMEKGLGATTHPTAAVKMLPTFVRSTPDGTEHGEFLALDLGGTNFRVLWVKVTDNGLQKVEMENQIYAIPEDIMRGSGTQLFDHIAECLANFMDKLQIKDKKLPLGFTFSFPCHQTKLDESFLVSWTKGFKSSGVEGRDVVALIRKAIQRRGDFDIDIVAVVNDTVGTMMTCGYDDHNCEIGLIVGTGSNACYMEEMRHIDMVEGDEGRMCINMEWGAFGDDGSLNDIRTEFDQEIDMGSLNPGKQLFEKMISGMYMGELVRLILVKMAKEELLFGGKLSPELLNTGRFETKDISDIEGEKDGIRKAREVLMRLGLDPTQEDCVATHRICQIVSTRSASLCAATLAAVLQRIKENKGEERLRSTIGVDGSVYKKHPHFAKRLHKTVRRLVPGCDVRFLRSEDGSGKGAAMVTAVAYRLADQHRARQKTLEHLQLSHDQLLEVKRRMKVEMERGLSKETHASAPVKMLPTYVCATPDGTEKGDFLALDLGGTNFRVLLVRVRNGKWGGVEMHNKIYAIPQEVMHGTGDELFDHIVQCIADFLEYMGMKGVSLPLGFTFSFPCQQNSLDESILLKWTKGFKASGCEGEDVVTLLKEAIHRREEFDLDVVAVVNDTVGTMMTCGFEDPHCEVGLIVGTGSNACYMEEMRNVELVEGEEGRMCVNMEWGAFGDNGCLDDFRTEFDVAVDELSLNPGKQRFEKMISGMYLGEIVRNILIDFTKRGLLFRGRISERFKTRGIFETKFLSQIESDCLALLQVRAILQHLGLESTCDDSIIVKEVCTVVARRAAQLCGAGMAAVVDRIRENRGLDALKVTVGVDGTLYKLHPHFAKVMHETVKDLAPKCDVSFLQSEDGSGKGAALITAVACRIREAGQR

Assay [3] deals with T3, HsHK2 (Homo sapiens, UniProt P52789).
T3 sequence (P52789 1-917): T2 sequence (P52789 1-917 L776F) with F776L

In assay [4] the target is T4, HsHK1 (Homo sapiens, UniProt P19367).
T4 sequence (P19367 1-917): T1 sequence (P19367 1-917 G679A) with A679G

With `O=P(O)(O)OC[C@H]1OC(O)[C@H](O)[C@@H](O)[C@@H]1O` (stereo partly shown) [glucose-6-phosphate], the IC50 was 320 ± 100 µM at HsHK1 [1], 260 ± 200 µM on HsHK2 [2], 87 ± 21 µM at HsHK2 [3] and 38 ± 15 µM on HsHK1 [4].
